Among the data in ChEMBL document CHEMBL3352545, “Two new unusual monoterpene acid glycosides from Acacia cyclops with potential cytotoxic activity” (2014) are inhibition of growth values, retold here.

For one assay, the system named is OVCAR. As to the kind of experiment: Growth inhibition of human OVCAR cells at 50 ug/mL by MTT assay. In kind it is functional. The note with it: read-out: GI. In general terms: Tetrazolium assays rely on reduction of a dye to a coloured formazan, in cell work by metabolically active cells.
The subject of a further assay is MCF7. Description: Growth inhibition of human MCF7 cells at 50 ug/mL by MTT assay. It counts as functional. To be noted: read-out: GI.

For `C=CC(C)(CC/C=C(\C)C(=O)O)O[C@@H]1O[C@@H](C)[C@H](OC(C)(C=C)CC/C=C(\C)C(=O)O)[C@@H](O)[C@H]1O` (some centres undefined), the inhibition of growth at 50 µg/mL came to 66.5% in the assay with OVCAR and 68.2% in the assay with MCF7.
For the compound `C=CC(C)(CC/C=C(\C)C(=O)O)O[C@@H]1O[C@H](CO)[C@@H](OC(C)(C=C)CC/C=C(/C)C(=O)O)[C@H](O)[C@H]1O` (some centres undefined), the figures for the inhibition of growth at 50 µg/mL in the assay with OVCAR and in the assay on MCF7 were 77.7% and 98.9%, respectively.
